Reference: ChEMBL document CHEMBL3244094, “Nonenolizable podophyllotoxin derivatives” (1977)
Activity calls are given as the source filed them. The rule behind the calls is not given here.

What was measured:
P815 = experiment: Cytotoxicity against mouse P815 cells assessed as concentration required to produce 50% arrest of mitotic activity; type: functional
Caelifera = experiment: Competitive binding affinity to tubulin in grasshopper embryo by radioactive colchicine displacement assay
L5178Y = experiment: Cytotoxicity against mouse L5178Y cells assessed as concentration required to produce 50% inhibition of cell count in suspension of growing cells; type: functional
TA3 [1] = experiment: Cytotoxicity against mouse TA3 cells assessed as concentration required to produce 50% decrease in protein production; type: functional
Gallus gallus [2] = species on record: Gallus gallus; experiment: Competitive binding affinity to tubulin in chick embryo brain by radioactive colchicine displacement assay; type: tissue-based
Gallus gallus [3] = species on record: Gallus gallus; experiment: Inhibition of tubulin in chick brain assessed as concentration required to inhibit microtubule formation by 50%
TLX-5 = experiment: Anticancer activity against mouse TLX5 cells allografted in mouse; type: functional, cell-based
L1210 = experiment: Anticancer activity against mouse L1210 cells allografted in mouse; type: functional, cell-based
TA3 [4] = experiment: Anticancer activity against mouse TA3 cells allografted in mouse; type: functional, cell-based
[5] = In vivo inhibition of microtubule assembly in Stentor coeruleus assessed as minimum concentration required to delay regeneration of ciliated oral apparatus by […] analysis; type: functional
Gallus gallus [6] = species on record: Gallus gallus; experiment: Competitive binding affinity to tubulin in chick embryo brain by radioactive colchicine displacement assay relative to podophyllotoxin
Gallus gallus [7] = species on record: Gallus gallus; experiment: Inhibition of tubulin in chick brain assessed as concentration required to inhibit microtubule formation by 50% relative to podophyllotoxin; settings: concentration not given here
[8] = In vivo inhibition of microtubule assembly in Stentor coeruleus assessed as minimum concentration required to delay regeneration of ciliated oral apparatus by […] analysis relative to podophyllotoxin; type: functional

| SMILES | Activity (P815) [×10⁻⁷ M] | KA (Caelifera) [×10⁶ L/mol] | Activity (L5178Y) [×10⁻⁷ M] | Activity (TA3 [1]) [×10⁻⁷ M] | Activity (Gallus gallus [2]) | Activity (Gallus gallus [3]) [×10⁻⁷ M] | Activity (TLX-5) | Activity (L1210) | Activity (TA3 [4]) | KA (Gallus gallus [2]) [×10⁶ L/mol] | MEC [5] [µM] | Activity (Gallus gallus [6]) [%] | inhibition (Gallus gallus [7]) [%] | inhibition (INH) [8] [%] |
| --- | --- | --- | --- | --- | --- | --- | --- | --- | --- | --- | --- | --- | --- | --- |
| COc1cc([C@H]2c3cc4c(cc3[C@@H](O)[C@H]3COC(=O)[C@@H]23)OCO4)cc(OC)c1OC | 1.9 | 0.037 | – | – | – | – | – | – | – | – | – | – | – | – |
| COc1cc([C@H]2c3cc4c(cc3C[C@H]3CSC[C@@H]32)OCO4)cc(OC)c1OC | 6 | – | 15 | 50 | Active | 100 | – | – | – | – | – | – | – | – |
| COc1cc([C@H]2c3cc4c(cc3[C@@H](O)[C@H]3COC(=O)[C@H]23)OCO4)cc(OC)c1OC | 0.12 | – | 0.14 | 3 | – | 6 | inactive | inactive | inactive | 2 | 4 | – | – | – |
| COc1cc([C@H]2c3cc4c(cc3C[C@H]3CCC[C@@H]32)OCO4)cc(OC)c1OC | 6.5 | – | 16 | 50 | – | 50 | – | – | – | 0.02 | – | – | – | – |
| COc1cc([C@H]2c3cc4c(cc3[C@@H](O)[C@H]3COC[C@H]23)OCO4)cc(OC)c1OC | 0.59 | – | 1.3 | 6 | – | 10 | inactive | inactive | inactive | 0.2 | 20 | 13 | 60 | 20 |
| COc1cc([C@H]2c3cc4c(cc3C[C@H]3COC(=O)[C@@H]32)OCO4)cc(OC)c1OC | 0.05 | – | – | – | – | – | – | – | – | 2 | – | – | – | – |
| COc1cc([C@H]2c3cc4c(cc3C[C@H]3COC(=O)[C@H]32)OCO4)cc(OC)c1OC [ISOPICRODEOXYPODOPHYLLOTOXIN] | 1.3 | – | – | – | – | – | – | – | – | – | – | – | – | – |
| COc1cc([C@H]2c3cc4c(cc3C[C@H]3COC[C@@H]32)OCO4)cc(OC)c1OC | 0.52 | – | 1.4 | 6 | – | 8 | inactive | inactive | inactive | 0.4 | – | 20 | 75 | – |
| COc1cc([C@H]2c3cc4c(cc3[C@@H](O)[C@H]3CSC[C@H]23)OCO4)cc(OC)c1OC | 4.3 | – | 14 | 60 | Active | 100 | – | – | – | – | – | – | – | – |
| COc1cc([C@H]2c3cc4c(cc3C[C@H]3CS(=O)(=O)C[C@@H]32)OCO4)cc(OC)c1OC | 69 | – | 139 | >100 | Active | > 500 | – | – | – | – | – | – | – | – |
| COc1cc([C@H]2c3cc4c(cc3C[C@H]3CC(=O)C[C@@H]32)OCO4)cc(OC)c1OC | 1 | – | 15 | 15 | – | 50 | – | – | – | 0.02 | – | – | – | – |
| COc1cc([C@H]2c3cc4c(cc3[C@@H](O)[C@H]3CS(=O)(=O)C[C@H]23)OCO4)cc(OC)c1OC | >220 | – | >220 | >100 | Active | > 1000 | – | – | – | – | – | – | – | – |
